Test results reported in patent US11819532B2, “Peptide macrocycles against Acinetobacter baumannii” (Hoffmann-La Roche Inc., priority 2018, dated 2023).
Read-outs that look alike come from different tables or passages of the source.

Tests used:
A. baumannii ATCC 17978 = assay: 50% growth inhibitory concentration (IC50) determination, antimicrobial susceptibility testing; assay type: cell-based; settings: Acinetobacter baumannii
Description: The in vitro antimicrobial activity of the compounds was alternatively determined according to the following procedure:
The assay used a 10-points Iso-Sensitest broth medium to measure quantitatively the in vitro activity of the compounds against A. baumannii ATCC 17978.
Stock compounds in DMSO were serially twofold diluted (e.g. range from 50 to 0.097 μM or from 10 to 0.020 μM final concentration) in 384 wells microtiter plates and inoculated with 49 μl the bacterial suspension in Iso-Sensitest medium to have a final cell concentration of ˜5×10^(5)CFU/ml in a final volume/well of 50 μl/well. Microtiter plates were incubated at 35±2° C.
Bacterial cell growth was determined with the measurement of optical density at X=600 nm each 20 minutes over a time course of 16h.
Growth inhibition was calculated during the logarithmic growth of the bacterial cells with determination of the concentration inhibiting 50% (IC50) and 90% (IC90) of the growth.
Table 1 provides the 50% growth inhibitory concentrations (IC50) in micromoles per liter of the compounds of present invention obtained against the A. baumannii strain ATCC17978.

[1] = Plasma precipitation screening assay; design: species or system rat
Description: An aliquot (10 μL) of compound solubilized in physiological buffer or the formulation used for its parenteral administration in vivo, and of various dilutions thereof in phosphate-buffered saline (PBS), is mixed 1:1 with rat plasma. After 10 minutes incubation at room temperature the UV-absorption of the mixtures is measured and compared to absorption of blank plasma or plasma with vehicle solution. A significant (often concentration dependent) increase of absorption is indicative of precipitation.
Whole blood is obtained from WISTAR rats (Hanbrl:Wist SPF) under terminal anaesthesia after intraperitoneal injection of a pentobarbital solution (from animals euthanized for collection of tissue for other experimental purposes). Blood is collected in 1.2 mL of Heparin S-Monovette tubes (Sarstedt) for the preparation of heparin plasma.
The tubes are then centrifuged for 5 min at 5200 g at room temperature to isolate the plasma supernatant. The plasma is used in the assay within 48 h of collection (storage at 4° C.).
Test compounds are received as powder or formulated. When obtained as powder, they are solubilized in 0.9% aq. sodium chloride solution in order to get the highest indicated concentration to be tested. The solubility is visually checked and the solutions are filtered using 0.45 PVDF hydrophilic filters (Durapore®, Darmstadt, Germany), to remove possible solid impurities. pH of this initial solution might be measured in the filtered stock solutions, before proceeding to prepare a compound dilution series in PBS (1:1-dilution steps).
The assay is conducted in 384-well plates. 10 μL of rat plasma is added to 10 μL of the various compound solutions. The assay is performed in duplicate. 10 μL of vehicle (0.9% aq. sodium chloride solution, PBS) added to the plasma is used as a negative control. The absorption is measured at 362 nm.
Raw data obtained are absorbance data. The difference between absorbance of the sample and mean absorbance of vehicle is calculated. The minimal effect concentration (MEC) is defined as the lowest concentration giving an absorbance difference, OD362≥0.05.

[2] = 50% growth inhibition, A. baumannii strain ATCC17978, Iso-Sensitest medium, read-out: IC50 ATCC17978
[3] = Wistar (Hanbrl:Wist SPF), rat, 10 min
[4] = ATCC17978, read-out: IC50 ATCC17978
[5] = minimal effect concentration, lowest concentration giving absorbance difference OD362≥0.05, rat plasma 1:1, 10 minutes room temperature

SMILES	IC50 (A. baumannii ATCC 17978; [2]) [nM]	Plasma precipitation MEC [1, 3] [µmol/L]	IC50 (A. baumannii ATCC 17978; [4]) [nM]	Plasma precipitation MEC [1, 5] [µmol/L]
CN1C(=O)[C@H](CCCCN)NC(=O)[C@H](CCCN)NCc2nccnc2Sc2c(Cl)ccc(-c3ccc(C(=O)O)c(Cl)c3)c2CNC(=O)[C@@H]1Cc1c[nH]c2ccccc12 (racemic) [Example 8.01, 2-chloro-4-[rac-(11S,14S,17S)-14-(4-aminobutyl)-11-(3-aminopropyl)-25-chloro-17-(1H-indo1-3-ylmethyl)-16-methyl-12,15,18-trioxo-2-thia-4,7,10,13,16,19-hexazatricyclo[19.4.0.03,8]pentacosa-1(21),3,5,7,22,24-hexaen-22-yl]benzoic acid]	28	760		
Cc1ccc(-c2ccn(CC(=O)O)c(=O)c2)c2c1Sc1ncccc1CN[C@@H](CCCN)C(=O)N[C@@H](CCCCN)C(=O)N(C)[C@@H](Cc1c[nH]c3ccccc13)C(=O)NC2 [Example 10.01, 2-[4-[(1S,4S,17S)-14-(4-Aminobutyl)-11-(3-aminopropyl)-17-(1H-indol-3-ylmethyl)-16,25-dimethyl-12,15,18-trioxo-2-thia-4,10,13,16,19-pentazatricyclo[19.4.0.03,8]pentacosa-1(25), 3(8), 4,6,21,23-hexaen-22-yl]-2-oxo-1-pyridyl]acetic Acid]	78	>1700		
CN1C(=O)[C@H](CCCCN)NC(=O)[C@H](CCCN)NCc2cccnc2Sc2c(F)ccc(-c3ccc(C(=O)O)cc3)c2CNC(=O)[C@@H]1Cc1c[nH]c2ccccc12 [Example 9.00, 4-[(1 S,14S,17S)-14-(4-aminobutyl)-1-(3-aminopropyl)-25-fluoro-17-(1H-indol-3-ylmethyl)-16-methyl-12,15,18-trioxo-2-thia-4,10,13,16,19-pentazatricyclo[19.4.0.03,8]pentacosa-1(25), 3(8), 4,6,21,23-hexaen-22-yl]benzoic Acid]	20	870		
Cc1[nH]c2ccccc2c1C[C@H]1C(=O)NCc2c(-c3ccn(CC(=O)O)c(=O)c3)ccc(Cl)c2Sc2ncccc2CN[C@@H](CCCN)C(=O)N[C@@H](CCCCN)C(=O)N1C [Example 7.01, 2-[4-[(1 S,14S,17S)-14-(4-Aminobutyl)-11-(3-aminopropyl)-25-chloro-16-methyl-17-[(2-methyl-1H-indol-3-yl)methyl]-12,15,18-trioxo-2-thia-4,10,13,16,19-pentazatricyclo[19.4.0.03,8]pentacosa-1(25), 3(8), 4,6,21,23-hexaen-22-yl]-2-oxo-1-pyridyl]acetic Acid]	46	1650		
CN1C(=O)[C@H](CCCCN)NC(=O)[C@H](CCCN)NCc2cccnc2Sc2c(Cl)ccc(-c3ccc(C(=O)O)c(S(C)(=O)=O)c3)c2CNC(=O)[C@@H]1Cc1c[nH]c2ccccc12 [Example 2.00, 4-[(11S,14S,17S)-14-(4-Aminobutyl)-11-(3-aminopropyl)-25-chloro-17-(1H-indol-3-ylmethyl)-16-methyl-12,15,18-trioxo-2-thia-4,10,13,16,19-pentazatricyclo[19.4.0.03,8]pentacosa-1(25), 3(8), 4,6,21,23-hexaen-22-yl]-2-methylsulfonyl-benzoic Acid]	73	950		
CN1C(=O)[C@H](CCCN)NC(=O)[C@H](CCCN)NCc2cccnc2Sc2c(F)ccc(-c3ccc(C(=O)O)nc3)c2CNC(=O)[C@@H]1Cc1c[nH]c2ccccc12 [Example 14.01, 5-[(11S,14S,17S)-11,14-bis(3-Aminopropyl)-25-fluoro-17-(1H-indol-3-ylmethyl)-16-methyl-12,15,18-trioxo-2-thia-4,10,13,16,19-pentazatricyclo[19.4.0.03,8]pentacosa-1(25), 3(8), 4,6,21,23-hexaen-22-yl]pyridine-2-carboxylic Acid]	90	880		
CN1C(=O)[C@H](CCCCN)NC(=O)[C@H](CCCN)NCc2cccnc2Sc2c(Cl)ccc(Cl)c2CNC(=O)[C@@H]1Cc1c[nH]c2ccccc12 [Example 38 of WO2017/072062, reference compound]			42	52
COc1cc(-c2ccc(Cl)c3c2CNC(=O)[C@H](Cc2c[nH]c4ccccc24)N(C)C(=O)[C@H](CCCCN)NC(=O)[C@H](CCCN)NCc2nccnc2S3)ccc1C(=O)O (racemic) [Example 8.03, 2-methoxy-4-[rac-(11S,14S,17S)-14-(4-aminobutyl)-11-(3-aminopropyl)-25-chloro-17-(1H-indo1-3-ylmethyl)-16-methyl-12,15,18-trioxo-2-thia-4,7,10,13,16,19-hexazatricyclo [19.4.0.03,8]pentacosa-1(25),3(8),4,6,21,23-hexaen-22-yl]benzoic acid]	78	760		
CN1C(=O)[C@H](CCCCN)NC(=O)[C@H](CCCN)NCc2cccnc2Sc2cncc(-c3ccc(C(=O)O)cc3)c2CNC(=O)[C@@H]1Cc1c[nH]c2ccccc12 [Example 18.00, 4-[(11S,14S,17S)-14-(4-Aminobutyl)-1-(3-aminopropyl)-17-(1H-indol-3-ylmethyl)-16-methyl-12,15,18-trioxo-2-thia-4,10,13,16,19,24-hexazatricyclo[19.4.0.03,8]pentacosa-1(25), 3(8), 4,6,21,23-hexaen-22-yl]benzoic Acid]	75	>1760		
COc1ccc(-c2ccc(C(=O)O)cc2)c2c1Sc1ncccc1CN[C@@H](CCCN)C(=O)N[C@@H](CCCCN)C(=O)N(C)[C@@H](Cc1c[nH]c3ccccc13)C(=O)NC2 [Example 11.00, 4-[(11S,14S,17S)-14-(4-Aminobutyl)-11-(3-aminopropyl)-17-(1H-indol-3-ylmethyl)-25-methoxy-16-methyl-12,15,18-trioxo-2-thia-4,10,13,16,19-pentazatricyclo[19.4.0.03,8]pentacosa-1(25), 3(8), 4,6,21,23-hexaen-22-yl]benzoic Acid]	71	1720		
CN1C(=O)[C@H](CCCCN)NC(=O)[C@H](CCCN)NCc2cccnc2Sc2c(Cl)ccc(-c3ccc(C(=O)O)cc3)c2CNC(=O)[C@@H]1Cc1c[nH]c2ccccc12 [Example 239 of WO2017/072062, reference compound]			20	470
CN1C(=O)[C@H](CCCCN)NC(=O)[C@H](CCCN)NCc2cccnc2Sc2c(Cl)ccc(-c3ccn4nc(C(=O)O)cc4c3)c2CNC(=O)[C@@H]1Cc1c[nH]c2ccccc12 [Example 2.01, 5-[(11S,14S,17S)-14-(4-aminobutyl)-11-(3-aminopropyl)-25-chloro-17-(1H-indo1-3-ylmethyl)-16-methyl-12,15,18-trioxo-2-thia-4,10,13,16,19-pentazatricyclo[19.4.0.03,8]pentacosa-1(25),3(8),4,6,21,23-hexaen-22-yl]pyrazolo[1,5-a]pyridine-2-carboxylic acid]	20	820		
Cc1[nH]c2ccccc2c1C[C@H]1C(=O)NCc2c(cccc2-c2ccc(C(=O)O)cc2)Sc2ncccc2CN[C@@H](CCCN)C(=O)N[C@@H](CCCCN)C(=O)N1C [Example 6.00, 4-[(11S,14S,17S)-14-(4-Aminobutyl)-11-(3-aminopropyl)-16-methyl-17-[(2-methyl-1H-indol-3-yl)methyl]-12,15,18-trioxo-2-thia-4,10,13,16,19-pentazatricyclo[19.4.0.03,8]pentacosa-1(25), 3,5,7,21,23-hexaen-22-yl]benzoic Acid]	23	1090		
